This note sets out measurements from patent US20140378541A1, “Synthetic Epigallocatechin Gallate (EGCG) Analogs” (WAYNE STATE UNIVERSITY, priority 2011, published 2014).

In one assay the test system is MDA-MB-231 cells. In words: Mammosphere formation assay. Type of assay: cell-based. The settings on record: Homo sapiens, MDA-MB-231, 168 h, 7 days. How it is done: MDA-MB-231 cells were seeded in low attached 6-well plates (1000 cells/well) and treated with indicated concentrations of 23 and 30 for 7 days, followed by calculating numbers of mammosphere (A) and taking photos of mammosphere morphology (B). Metformin and EGCG were served as control. *, P<0.1; **, P<0.01. Columns, mean of three experiments; bars, SD.
Mammosphere formation assay was performed to assess the capacity of cancer stem cell self-renewal. Single cell suspensions of MDA-MB-231 cells were thoroughly suspended and plated on ultra low adherent wells of 6-well plates (Corning, Lowell, Mass.) at 1000 cells/well in 1.5 ml of sphere formation medium (1:1 DMEM/F12 medium supplemented with 50 units/ml penicillin, […] streptomycin, B-27 and N-2). One milliliter of sphere formation medium was added every 3-4 days. After 7 days of incubation with different concentrations of EGCG analogs 23, 30 or metformin, the formed spheres were collected by centrifugation at 300 g for 5 min and counted with an inverted phase-contrast Zeiss Axiovert 25 microscope.

For another assay, the system named is AMPK signaling. In words: AMPK activation, Western blot, MDA-MB-231 cells. It counts as cell-based, human. The following applies: 3 h; for AMPK activation (p-AMPK): 20 μM, metformin 10 mM as comparison; for AMPK activation (phosphor-AMPKα, phosphor-Raptor), dose dependence: indicated concentrations. How it is done: In FIG. 9A, human breast cancer MDA-MB-231 cells were treated with 20 μM of EGCG, Pro-EGCG and EGCG analogs (compounds 5, 7, 23, 30 and 31), or 10 mM of metformin for 3 hrs. Cell lysates were analyzed by Western blot using antibodies of anti-AMPK, p-AMPK, PARP, p-EGFR, EGFR or β-actin. In FIG. 9B, human breast cancer MDA-MB-231 cells were treated with 20 μM of EGCG analogs 23 and 30, 10 nM of docetaxel alone, or combined treatment with compounds 23 and 30 plus docetaxel for 24 hrs. Cell lysates were analyzed by Western blot using antibodies of anti-AMPK, p-AMPK, PARP, p-EGFR, EGFR or β-actin. In FIG. 9C, cells were incubated in medium (0.1% BSA without FBS) containing 20 μM of 23, 30, 2.5 μM of Erlotinib (Eb) alone or the combinations as indicated for 24 hrs. Cell lyses were analyzed by Western blot using antibodies of anti-AMPK, p-AMPK, PARP, p-EGFR, EGFR or β-actin.
(§1) (A) EGCG analogs 23 and 30 inhibited breast cancer cell proliferation. MDA-MB-231 cells were treated with indicated concentrations of 23, 30 or metformin for 24 h, followed by a MTT assay. *, P<0.1; **, P<0.01. Columns, mean of three experiments; bars, SD. (B) EGCG analogs 23 and 30 activated AMPK at a dose-dependent manner, measured by elevated level of phosphor-AMPKα and its downstream proteins of phosphor-Raptor. […] MDA-MB-231 cells were treated with indicated concentrations of 23 or 30 for 3 h, followed by Western blot analysis with the indicated antibodies. The numbers underneath the Western results of p-AMPKα indicated normalized phosphor-AMPKα/β-actin ratios. […]
A whole cell extract was prepared from the treated cells as described by Landis-Piwowar et al. Cancer Res. (2007) 67, 4303, Chen et al. Cancer Res. (2007) 67, 1636, and Chen et al. Biochem. Pharm. (2005) 69, 1421. Cell extracts (30 μg) were separated by an SDS-PAGE gel and transferred to nitrocellulose membranes. The membrances were blotted by specific antibodies including anti-AMPK, p-AMPK, EGFR, p-EGFR (Cell Signaling Tech., Danvers, Mass.), PARP (Enzo Life Sciences, Plymouth Meeting, Pa.), actin (Santa Cruz Biotechnology, Santa Cruz, Calif.). The membranes were visualized by enhanced chemiluminescence, as described previously by Landis-Piwowar et al. Cancer Res. (2007) 67, 4303, Chen et al. Cancer Res. (2007) 67, 1636, and Chen et al. Biochem. Pharm. (2005) 69, 1421.
The Western blot analysis was performed as follows: A whole cell extract was prepared from the treated cells as described previously (Landis-Piwowar et al., Cancer research, 2007, 67: 4303-4310; Chen et al., Cancer research, 2007, 67: 1636-1644; Chen et al., Biochemical pharmacology, 2005, 69: 1421-1432). The cell extracts (30 μg) were then separated by an SDS-PAGE gel and transferred to nitrocellulose membranes. The membrances were blotted by specific antibodies including anti-AMPK, p-AMPK, EGFR, p-EGFR (Cell Signaling Tech. Danvers, Mass.), PARP (Enzo Life Sciences, Plymouth Meeting, Pa.), actin (Santa Cruz Biotechnology, Santa Cruz, Calif.). The membranes were visualized by enhanced chemiluminescence, as described previously (Landis-Piwowar et al., Cancer research, 2007, 67: 4303-4310; Chen et al., Cancer research, 2007, 67: 1636-1644; Chen et al., Biochemical pharmacology, 2005, 69: 1421-1432).
In FIG. 9A, human breast cancer MDA-MB-231 cells were treated with 20 μM of EGCG, Pro-EGCG and other EGCG analogs (compounds 5, 7, 23, 30 and 31), or 10 mM of metformin for 3 hrs. Cell lysates were analyzed by Western blot using antibodies of anti-AMPK, p-AMPK, PARP, p-EGFR, EGFR or β-actin. In FIG. 9B, human breast cancer MDA-MB-231 cells were treated with 20 μM of EGCG analogs 23 and 30, 10 nM of docetaxel alone, or combined treatment with compounds 23 and 30 plus docetaxel for 24 hrs.

Assay [1] has as its system mTOR pathway (phosphor-p70-S6K). In words: mTOR pathway, phosphor-p70-S6K Western blot, MDA-MB-231 cells. The following applies: 3 h. It counts as cell-based, human. On the procedure:
as §1
(§2) The Western blot analysis was performed as follows: A whole cell extract was prepared from the treated cells as described previously (Landis-Piwowar et al., Cancer research, 2007, 67: 4303-4310; Chen et al., Cancer research, 2007, 67: 1636-1644; Chen et al., Biochemical pharmacology, 2005, 69: 1421-1432). The cell extracts (30 μg) were then separated by an SDS-PAGE gel and transferred to nitrocellulose membranes. […]

For the next assay, the system named is p21 protein. In words: p21 protein level, Western blot, MDA-MB-231 cells. The settings on record: 3 h. Type of assay: cell-based, human. On the procedure:
as §1, §2

In the assay on MDA-MB-231 cells, `O=C(O[C@@H]1Cc2c(O)cc(O)cc2O[C@@H]1c1cc(O)c(O)c(O)c1)c1cc(O)c(O)c(O)c1` [Compound 1, (−)-Epigallocatechin gallate, reference compound] yielded an inhibition at 10 µM of 20.1% and an inhibition at 20 µM of 51.3%. In addition, the “AMPK activation (p-AMPK)” value with AMPK signaling is “can activate AMPK signaling”.
On to `O=C(O[C@H]1Cc2ccccc2C[C@H]1OC(=O)c1cc(O)c(Br)c(O)c1)c1cc(O)c(Br)c(O)c1` [Compound 23], for which, in the assay on MDA-MB-231 cells, the inhibition at 10 µM turned out to be 45.1% and testing at 20 µM gave an inhibition of 66.7%. Moreover, the phosphor-p70-S6K level result in assay [1] is recorded as “decreased phosphor-p70-S6K”. In the assay on AMPK signaling, the “AMPK activation (p-AMPK)” value was “more potent AMPK activators even at lower concentration than metformin” and the “AMPK activation (phosphor-AMPKα, phosphor-Raptor), dose dependence” value was “activated AMPK in a dose-dependent manner”. Moreover, in the assay with p21 protein, the p21 protein level entry is on record as “increased levels of p21 protein”.
For `Nc1ccc(C(=O)O[C@H]2Cc3ccccc3C[C@H]2OC(=O)c2ccc(N)cc2)cc1` [Compound 30], in the assay with MDA-MB-231 cells, testing at 10 µM gave an inhibition of 52.2% and the inhibition at 20 µM was 73.3%. The phosphor-p70-S6K level entry in assay [1] was “decreased phosphor-p70-S6K”. Moreover, in the assay with AMPK signaling, the “AMPK activation (p-AMPK)” value is “more potent AMPK activators even at lower concentration than metformin” and the “AMPK activation (phosphor-AMPKα, phosphor-Raptor), dose dependence” value is listed as “activated AMPK in a dose-dependent manner”. In addition, the p21 protein level result with p21 protein is given as “increased levels of p21 protein”.
